Source: the supplement of paper PMC10307832

Columns and labels:
Test in all cases: relative viability (nuclei count vs DMSO), 5 days (fraction); higher = more cells survive
ABC-1 = system: ABC-1
Summary of the method: (§1)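 Lung cancer cell lines were pin-tool dosed in 1536-well plates on the day after seeding, with either a lone drug or a fixed anchor-drug dose plus five library-drug doses (not always all listed) in √10 steps. Nuclei were counted on 4× images after 5 days. Relative viability is the ratio of treated-well to vehicle-well nuclei counts, with each value a median of duplicate plates.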

ChaGo-K-1 = system: ChaGo-K-1
Summary of the method: as §1

HCC-78 = system: HCC-78
Summary of the method: as §1

HOP-62 = system: HOP-62
Summary of the method: as §1

LCLC-97TM1 = system: LCLC-97TM1
Summary of the method: as §1

LOU-NH91 = system: LOU-NH91
Summary of the method: as §1

NCI-H1355 = system: NCI-H1355
Summary of the method: as §1

NCI-H1437 = system: NCI-H1437
Summary of the method: as §1

NCI-H1755 = system: NCI-H1755
Summary of the method: as §1

NCI-H1792 = system: NCI-H1792
Summary of the method: as §1

NCI-H2009 = system: NCI-H2009
Summary of the method: as §1

NCI-H2023 = system: NCI-H2023
Summary of the method: as §1

NCI-H2085 = system: NCI-H2085
Summary of the method: as §1

NCI-H2170 = system: NCI-H2170
Summary of the method: as §1

NCI-H23 = system: NCI-H23
Summary of the method: as §1

NCI-H2405 = system: NCI-H2405
Summary of the method: as §1

NCI-H322M = system: NCI-H322M
Summary of the method: as §1

NCI-H441 = system: NCI-H441
Summary of the method: as §1

NCI-H650 = system: NCI-H650
Summary of the method: as §1

NCI-H727 = system: NCI-H727
Summary of the method: as §1

RERF-LC-KJ = system: RERF-LC-KJ
Summary of the method: as §1

SK-MES-1 = system: SK-MES-1
Summary of the method: as §1

UMC-11 = system: UMC-11
Summary of the method: as §1

## O=C(O)CCCCC(CCSCc1ccccc1)SCc1ccccc1 (centres undefined) [CPI-613] + Nc1ncn([C@H]2C[C@H](O)[C@@H](CO)O2)c(=O)n1 [Decitabine] (partner 2 µM)
ABC-1; first compound 5 µM
  relative viability: 1.18
ABC-1; first compound 15.81 µM
  relative viability: 1.28
ABC-1; first compound 50 µM
  relative viability: 1.37
ABC-1; first compound 158.11 µM
  relative viability: 0.698
ABC-1; first compound 500 µM
  relative viability: 0.864
ChaGo-K-1; first compound 5 µM
  relative viability: 0.489
ChaGo-K-1; first compound 15.81 µM
  relative viability: 0.517
ChaGo-K-1; first compound 50 µM
  relative viability: 0.514
ChaGo-K-1; first compound 158.11 µM
  relative viability: 0.274
ChaGo-K-1; first compound 500 µM
  relative viability: 0.161
HCC-78; first compound 15.81 µM
  relative viability: 0.709
HCC-78; first compound 50 µM
  relative viability: 0.836
HCC-78; first compound 158.11 µM
  relative viability: 0.691
HCC-78; first compound 500 µM
  relative viability: 0.742
HOP-62; first compound 5 µM
  relative viability: 0.186
HOP-62; first compound 15.81 µM
  relative viability: 0.235
HOP-62; first compound 50 µM
  relative viability: 0.191
HOP-62; first compound 158.11 µM
  relative viability: 0.173
HOP-62; first compound 500 µM
  relative viability: 0.0675
LCLC-97TM1; first compound 5 µM
  relative viability: 0.251
LCLC-97TM1; first compound 15.81 µM
  relative viability: 0.213
LCLC-97TM1; first compound 50 µM
  relative viability: 0.261
LCLC-97TM1; first compound 158.11 µM
  relative viability: 0.0572
LCLC-97TM1; first compound 500 µM
  relative viability: 0.051
LOU-NH91; first compound 5 µM
  relative viability: 0.794
LOU-NH91; first compound 15.81 µM
  relative viability: 0.783
LOU-NH91; first compound 50 µM
  relative viability: 0.819
LOU-NH91; first compound 158.11 µM
  relative viability: 0.765
LOU-NH91; first compound 500 µM
  relative viability: 0.683
NCI-H1355; first compound 5 µM
  relative viability: 0.34
NCI-H1355; first compound 15.81 µM
  relative viability: 0.337
NCI-H1355; first compound 50 µM
  relative viability: 0.342
NCI-H1355; first compound 158.11 µM
  relative viability: 0.341
NCI-H1355; first compound 500 µM
  relative viability: 0.114
NCI-H1437; first compound 5 µM
  relative viability: 0.491
NCI-H1437; first compound 15.81 µM
  relative viability: 0.542
NCI-H1437; first compound 50 µM
  relative viability: 0.567
NCI-H1437; first compound 158.11 µM
  relative viability: 0.207
NCI-H1437; first compound 500 µM
  relative viability: 0.0486
NCI-H1755; first compound 5 µM
  relative viability: 0.732
NCI-H1755; first compound 15.81 µM
  relative viability: 0.738
NCI-H1755; first compound 50 µM
  relative viability: 0.67
NCI-H1755; first compound 158.11 µM
  relative viability: 0.699
NCI-H1755; first compound 500 µM
  relative viability: 0.543
NCI-H1792; first compound 5 µM
  relative viability: 0.571
NCI-H1792; first compound 15.81 µM
  relative viability: 0.449
NCI-H1792; first compound 50 µM
  relative viability: 0.572
NCI-H1792; first compound 158.11 µM
  relative viability: 0.253
NCI-H1792; first compound 500 µM
  relative viability: 0.0627
NCI-H2009; first compound 5 µM
  relative viability: 0.393
NCI-H2009; first compound 15.81 µM
  relative viability: 0.397
NCI-H2009; first compound 50 µM
  relative viability: 0.385
NCI-H2009; first compound 158.11 µM
  relative viability: 0.228
NCI-H2009; first compound 500 µM
  relative viability: 0.0406
NCI-H2023; first compound 5 µM
  relative viability: 0.215
NCI-H2023; first compound 15.81 µM
  relative viability: 0.257
NCI-H2023; first compound 50 µM
  relative viability: 0.244
NCI-H2023; first compound 158.11 µM
  relative viability: 0.0918
NCI-H2023; first compound 500 µM
  relative viability: 0.0147
NCI-H2085; first compound 5 µM
  relative viability: 0.536
NCI-H2085; first compound 15.81 µM
  relative viability: 0.525
NCI-H2085; first compound 50 µM
  relative viability: 0.568
NCI-H2085; first compound 158.11 µM
  relative viability: 0.437
NCI-H2085; first compound 500 µM
  relative viability: 0.208
NCI-H2170; first compound 5 µM
  relative viability: 0.458
NCI-H2170; first compound 15.81 µM
  relative viability: 0.484
NCI-H2170; first compound 50 µM
  relative viability: 0.486
NCI-H2170; first compound 158.11 µM
  relative viability: 0.342
NCI-H2170; first compound 500 µM
  relative viability: 0.199
NCI-H23; first compound 5 µM
  relative viability: 0.34
NCI-H23; first compound 15.81 µM
  relative viability: 0.321
NCI-H23; first compound 50 µM
  relative viability: 0.326
NCI-H23; first compound 158.11 µM
  relative viability: 0.155
NCI-H23; first compound 500 µM
  relative viability: 0.0289
NCI-H2405; first compound 5 µM
  relative viability: 0.754
NCI-H2405; first compound 15.81 µM
  relative viability: 0.72
NCI-H2405; first compound 50 µM
  relative viability: 0.709
NCI-H2405; first compound 158.11 µM
  relative viability: 0.674
NCI-H2405; first compound 500 µM
  relative viability: 0.535
NCI-H322M; first compound 5 µM
  relative viability: 0.65
NCI-H322M; first compound 15.81 µM
  relative viability: 0.656
NCI-H322M; first compound 50 µM
  relative viability: 0.664
NCI-H322M; first compound 158.11 µM
  relative viability: 0.767
NCI-H322M; first compound 500 µM
  relative viability: 0.703
NCI-H441; first compound 5 µM
  relative viability: 0.261
NCI-H441; first compound 15.81 µM
  relative viability: 0.253
NCI-H441; first compound 50 µM
  relative viability: 0.231
NCI-H441; first compound 158.11 µM
  relative viability: 0.148
NCI-H441; first compound 500 µM
  relative viability: 0.0077
NCI-H650; first compound 5 µM
  relative viability: 0.314
NCI-H650; first compound 15.81 µM
  relative viability: 0.295
NCI-H650; first compound 50 µM
  relative viability: 0.299
NCI-H650; first compound 158.11 µM
  relative viability: 0.321
NCI-H650; first compound 500 µM
  relative viability: 0.288
NCI-H727; first compound 5 µM
  relative viability: 0.803
NCI-H727; first compound 15.81 µM
  relative viability: 0.786
NCI-H727; first compound 50 µM
  relative viability: 0.894
NCI-H727; first compound 158.11 µM
  relative viability: 0.776
NCI-H727; first compound 500 µM
  relative viability: 0.828
RERF-LC-KJ; first compound 5 µM
  relative viability: 0.663
RERF-LC-KJ; first compound 15.81 µM
  relative viability: 0.619
RERF-LC-KJ; first compound 50 µM
  relative viability: 0.643
RERF-LC-KJ; first compound 158.11 µM
  relative viability: 0.272
RERF-LC-KJ; first compound 500 µM
  relative viability: 0.199
SK-MES-1; first compound 5 µM
  relative viability: 0.422
SK-MES-1; first compound 15.81 µM
  relative viability: 0.367
SK-MES-1; first compound 50 µM
  relative viability: 0.377
SK-MES-1; first compound 158.11 µM
  relative viability: 0.19
SK-MES-1; first compound 500 µM
  relative viability: 0.103
UMC-11; first compound 5 µM
  relative viability: 0.574
UMC-11; first compound 15.81 µM
  relative viability: 0.573
UMC-11; first compound 50 µM
  relative viability: 0.611
UMC-11; first compound 158.11 µM
  relative viability: 0.562
UMC-11; first compound 500 µM
  relative viability: 0.544
